The record followed here is patent US20100016285A1, “HETEROCYCLIDENE-N-(ARYL) ACETAMIDE DERIVATIVE” (MOCHIDA PHARMACEUTICAL CO., LTD., priority 2007, published 2010).

In this assay the target is T1, human TRPV1 (Homo sapiens, UniProt Q8NER1).
T1 construct: expressed in transfected cells; host or cells: CHO-K1 cells, pCAGGS vector, clones selected by limiting dilution
The assay is described as follows: Capsaicin-induced Ca influx in transformed CHO cells, FDSS-6000 (b-1), A2 value. The class given is cell-based. The settings on record: concentration shifting the capsaicin concentration-reaction curve two times rightward; CHO cells expressing TRPV1. The source says:
(1) Measurement of Capsaicin-Induced Ca Influx in a Transformed CHO Cell Line Expressing Human TRPV1
(a) Establishment of a Transformed CHO Cell Line Expressing Human and Rat TRPV1
Human and rat vanilloid receptor 1 (hTRPV1 and rTRPV1) cDNA was cloned from human brain and rat dorsal root ganglion, respectively. The cloned TRPV1 cDNA was incorporated in a pCAGGS vector. The vector was introduced to a CHO-K1 cell line, thus performing transformation. Clones obtained by limiting dilution were stimulated with capsaicin. Clones with a high responsiveness were selected using an increase in the Ca concentration as an indicator. The selected clones were used for the following experiment.
(b-1) Measurement of Ca Influx using FDSS-6000
The transformed CHO cells expressing human or rat TRPV1 were seeded in a 96-well plate (with black walls and transparent bottoms, manufactured by Greiner) at a density of 40,000 cells per well. The cells were cultured at 37° C. in 5% CO2 atmosphere for one night. A loading solution of FLIPR Calcium 3 assay kit (manufactured by Molecular Devices Corporation) containing 2.5 mmol/L of probenecid was then added to each of the wells in the same amount as the culture medium, and the cells were cultured at 37° C. for 60 minutes. For three minutes after the cells were stimulated with capsaicin (1 nmol/L to 1 μmol/L), the change of the intracellular Ca concentration was measured using FDSS-6000 (λex: 480 nm, λem: […], manufactured by Hamamatsu Photonics K.K.). The integrated values of the increase rate of the intracellular Ca concentration were calculated for a group treated with the compounds of the present invention and a group treated with a vehicle, thus allowing capsaicin concentration-reaction curves to be obtained. A concentration (A2 value) of each of the compounds of the present invention, at which the capsaicin concentration-reaction curve obtained when the cells were treated with the vehicle was shifted two times rightward, was calculated. The inhibitory effects of the test compounds were compared using this value as an indicator.

Each structure is given as a SMILES string.

T1 sequence (Q8NER1 whole entry): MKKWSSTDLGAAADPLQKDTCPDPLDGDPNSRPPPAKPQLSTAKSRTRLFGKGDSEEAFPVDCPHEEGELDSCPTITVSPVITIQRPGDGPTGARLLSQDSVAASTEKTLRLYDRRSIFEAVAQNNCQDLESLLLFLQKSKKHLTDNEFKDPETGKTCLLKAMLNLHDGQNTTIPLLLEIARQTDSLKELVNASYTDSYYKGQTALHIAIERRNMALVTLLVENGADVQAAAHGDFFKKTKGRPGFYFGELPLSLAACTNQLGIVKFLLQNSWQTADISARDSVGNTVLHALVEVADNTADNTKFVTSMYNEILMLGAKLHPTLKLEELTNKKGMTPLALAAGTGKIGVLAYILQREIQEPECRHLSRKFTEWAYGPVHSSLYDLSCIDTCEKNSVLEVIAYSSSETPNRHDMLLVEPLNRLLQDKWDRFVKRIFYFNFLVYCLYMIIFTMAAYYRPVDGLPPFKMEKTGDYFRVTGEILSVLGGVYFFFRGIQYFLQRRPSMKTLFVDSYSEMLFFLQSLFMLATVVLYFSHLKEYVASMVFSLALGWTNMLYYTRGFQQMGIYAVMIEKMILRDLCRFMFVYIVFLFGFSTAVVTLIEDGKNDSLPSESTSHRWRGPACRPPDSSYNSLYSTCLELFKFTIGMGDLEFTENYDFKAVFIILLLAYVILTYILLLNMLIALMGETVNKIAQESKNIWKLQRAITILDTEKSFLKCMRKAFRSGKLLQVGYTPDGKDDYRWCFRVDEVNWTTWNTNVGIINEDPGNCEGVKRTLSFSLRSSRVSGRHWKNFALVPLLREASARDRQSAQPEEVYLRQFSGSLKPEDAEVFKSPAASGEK

With `CN1C(=O)CCc2ccc(NC(=O)/C=C3\CC(C)(C)Oc4cc(C(F)(F)F)ccc43)cc21` [EXAMPLE 25, (E)-2-(7-trifluoromethyl-2,2-dimethylchroman-4-ylidene)-N-(1-methyl-3,4-dihydro-2(1H)-quinolinon-7-yl)acetamide], the A2 value entry was “A (A2 value of less than 100 nM)”.

For the compound `O=C(/C=C1\NCCOc2cc(C(F)(F)F)ccc21)Nc1ccc2c(c1)NC(=O)CC2` [EXAMPLE 27, (Z)-2-(8-trifluoromethyl-3,4-dihydrobenzo[f][1,4]oxazepin-5(2H)-ylidene)-N-(3,4-dihydroquinolin-2(1H)-on-7-yl)acetamide], the A2 value entry is given as “A (A2 value of less than 100 nM)”.

Take `O=C(/C=C1\CCCOc2cc(C(F)(F)F)ccc21)Nc1ccc2c(c1)NC(=O)C(CO)C2` (stereo not drawn) [EXAMPLE 28, (E)-2-(8-trifluoromethyl-3,4-dihydrobenzo[b]oxepin-5(2H)-ylidene)-N-(3-hydroxymethyl-3,4-dihydro-2(1H)-quinolinon-7-yl)acetamide]: the A2 value entry is “A (A2 value of less than 100 nM)”.

For the compound `CC1(C)Cc2ccc(NC(=O)/C=C3\CCCOc4cc(C(F)(F)F)ccc43)cc2NC1=O` [EXAMPLE 29, (E)-2-(8-trifluoromethyl-3,4-dihydrobenzo[b]oxepin-5(2H)-ylidene)-N-(3,3-dimethyl-3,4-dihydro-2(1H)-quinolinon-7-yl)acetamide], the A2 value entry was “A (A2 value of less than 100 nM)”.

Turning to `O=C(/C=C1\CCCOc2cc(C(F)(F)F)ccc21)Nc1ccc2c(c1)NC(=O)C(N1CCOCC1)C2` (stereo not drawn) [EXAMPLE 34, (E)-2-(8-trifluoromethyl-3,4-dihydrobenzo[b]oxepin-5(2H)-ylidene)-N-(3-(4-morpholinyl)-3,4-dihydro-2(1H)-quinolinon-7-yl)acetamide], the A2 value entry was “A (A2 value of less than 100 nM)”.

`O=C1CNc2cccc(NC(=O)/C=C3\CCCOc4cc(C(F)(F)F)ccc43)c2C1` [EXAMPLE 36, (E)-2-(8-trifluoromethyl-3,4-dihydrobenzo[b]oxepin-5(2H)-yliden)-N-(3-oxo-1,2,3,4-tetrahydroquinolin-5-yl)acetamide]: the A2 value entry is given as “A (A2 value of less than 100 nM)”.

With `O=C(/C=C1\CCCOc2cc(C(F)(F)F)ccc21)Nc1ccc(OCCCO)c2c1CCC(=O)N2` [EXAMPLE 37, (E)-2-(8-trifluoromethyl-3,4-dihydrobenzo[b]oxepin-5(2H)-ylidene)-N-(8-(3-hydroxypropoxy)-3,4-dihydro-2(1H)-quinolinon-5-yl)acetamide], the A2 value entry is listed as “A (A2 value of less than 100 nM)”.

Take `O=C(/C=C1\CCCOc2cc(C(F)(F)F)ccc21)Nc1ccc2c(c1)NC(=O)N(Cc1ccccc1)C2` [EXAMPLE 38, (E)-2-(8-trifluoromethyl-3,4-dihydrobenzo[b]oxepin-5(2H)-ylidene)-N-(3-benzyl-3,4-dihydro-2(1H)-quinazolinon-7-yl)acetamide]: the A2 value entry was “A (A2 value of less than 100 nM)”.

In the case of `CN1C(=O)N(Cc2ccccc2)Cc2ccc(NC(=O)/C=C3\CCCOc4cc(C(F)(F)F)ccc43)cc21` [EXAMPLE 39, (E)-2-(8-trifluoromethyl-3,4-dihydrobenzo[b]oxepin-5(2H)-ylidene)-N-(3-benzyl-1-methyl-3,4-dihydro-2(1H)-quinazolinon-7-yl)acetamide], the A2 value result is “A (A2 value of less than 100 nM)”.

For `CC1(CO)Nc2ccc(NC(=O)/C=C3\CCCOc4cc(C(F)(F)F)ccc43)cc2NC1=O` (stereo not drawn) [EXAMPLE 40, (E)-2-(8-trifluoromethyl-3,4-dihydrobenzo[b]oxepin-5(2H)-ylidene)-N-(3-hydroxymethyl-3-methyl-3,4-dihydro-2(1H)-quinoxalinon-7-yl)acetamide], the A2 value result is on record as “A (A2 value of less than 100 nM)”.

Turning to `CN1c2ccc(NC(=O)/C=C3\CCCOc4cc(C(F)(F)F)ccc43)cc2NC(=O)C1(C)CO` (stereo not drawn) [EXAMPLE 41, (E)-2-(8-trifluoromethyl-3,4-dihydrobenzo[b]oxepin-5(2H)-ylidene)-N-(3-hydroxymethyl-3,4-dimethyl-3,4-dihydro-2(1H)-quinoxalinon-7-yl)acetamide], the A2 value result is listed as “A (A2 value of less than 100 nM)”.

Consider `COCCN(CCOC)C1Cc2ccc(NC(=O)/C=C3\CCCOc4cc(C(F)(F)F)ccc43)cc2NC1=O` (stereo not drawn) [EXAMPLE 44], for which the A2 value entry is given as “A (A2 value of less than 100 nM)”.

For the compound `COCCN(C)C1Cc2ccc(NC(=O)/C=C3\CCCOc4cc(C(F)(F)F)ccc43)cc2NC1=O` (stereo not drawn) [EXAMPLE 45, (E)-2-(8-trifluoromethyl-3,4-dihydrobenzo[b]oxepin-5-(2H)-ylidene)-N-(3-(N-methyl-N-(2-methoxyethyl)amino)-3,4-dihydro-2(1H)-quinolinon-7-yl)acetamide], the A2 value result is “A (A2 value of less than 100 nM)”.

`O=C(/C=C1\CCCOc2cc(C(F)(F)F)ccc21)Nc1ccc2c(c1)NC(=O)C(N1CCCC1)C2` (stereo not drawn) [EXAMPLE 46]: the A2 value result is “A (A2 value of less than 100 nM)”.

As for `O=C(/C=C1\CCCOc2cc(C(F)(F)F)ccc21)Nc1ccc2c(c1)NC(=O)C(N1CC[C@@H](F)C1)C2` (stereo partly drawn) [EXAMPLE 47, (E)-2-(8-trifluoromethyl-3,4-dihydrobenzo[b]oxepin-5(2H)-ylidene)-N-(3-((3S)-fluoropyrrolidin-1-yl)-3,4-dihydro-2(1H)-quinolinon-7-yl)acetamide], the A2 value entry is “A (A2 value of less than 100 nM)”.

Regarding `O=C(/C=C1\CCCOc2cc(C(F)(F)F)ccc21)Nc1ccc2c(c1)NC(=O)C(N1CC[C@@H](O)C1)C2` (stereo partly drawn) [EXAMPLE 48, (E)-2-(8-trifluoromethyl-3,4-dihydrobenzo[b]oxepin-5(2H)-ylidene)-N-(3-((3S)-hydroxypyrrolidin-1-yl)-3,4-dihydro-2(1H)-quinolinon-7-yl)acetamide], the A2 value entry is recorded as “A (A2 value of less than 100 nM)”.

`O=C(/C=C1\CCCOc2cc(C(F)(F)F)ccc21)Nc1ccc2c(c1)NC(=O)C(N1CCNCC1)C2` (stereo not drawn) [EXAMPLE 52, (E)-2-(8-trifluoromethyl-3,4-dihydrobenzo[b]oxepin-5(2H)-ylidene)-N-(3-(1-piperazinyl)-3,4-dihydro-2(1H)-quinolinon-7-yl)acetamide]: the A2 value entry is on record as “B (A2 value of 100 nM or more)”.

`O=C(/C=C1\CCCOc2cc(C(F)(F)F)ccc21)Nc1ccc2c(c1)NC(=O)C(N1CCCOCC1)C2` (stereo not drawn) [EXAMPLE 53, (E)-2-(8-trifluoromethyl-3,4-dihydrobenzo[b]oxepin-5(2H)-ylidene)-N-(3-([1,4]oxazepan-4-yl)-3,4-dihydro-2(1H)-quinolinon-7-yl)acetamide]: the A2 value entry was “A (A2 value of less than 100 nM)”.

With `O=C(/C=C1\CCCOc2cc(C(F)(F)F)ccc21)Nc1ccc2c(c1)NC(=O)C(N1CCSCC1)C2` (stereo not drawn) [EXAMPLE 54, (E)-2-(B-trifluoromethyl-3,4-dihydrobenzo[b]oxepin-5(2H)-ylidene)-N-(3-(4-thiomorpholinyl)-3,4-dihydro-2(1H)-quinolinon-7-yl)acetamide], the A2 value entry is “A (A2 value of less than 100 nM)”.

Consider `COC1CCN(C2Cc3ccc(NC(=O)/C=C4\CCCOc5cc(C(F)(F)F)ccc54)cc3NC2=O)CC1` (stereo not drawn) [EXAMPLE 55, (E)-2-(8-trifluoromethyl-3,4-dihydrobenzo[b]oxepin-5(2H)-ylidene)-N-(3-(4-methoxy-1-piperidinyl)-3,4-dihydro-2(1H)-quinolinon-7-yl)acetamide], for which the A2 value entry was “A (A2 value of less than 100 nM)”.

For the compound `CO[C@@H]1CCN(C2Cc3ccc(NC(=O)/C=C4\CCCOc5cc(C(F)(F)F)ccc54)cc3NC2=O)C1` (stereo partly drawn) [EXAMPLE 56, (E)-2-(8-trifluoromethyl-3,4-dihydrobenzo[b]oxepin-5(2H)-ylidene)-N-(3-((3S)-methoxypyrrolidin-1-yl)-3,4-dihydro-2(1H)-quinolinon-7-yl)acetamide], the A2 value result is given as “A (A2 value of less than 100 nM)”.

Regarding `CN(C1CCOCC1)C1Cc2ccc(NC(=O)/C=C3\CCCOc4cc(C(F)(F)F)ccc43)cc2NC1=O` (stereo not drawn) [EXAMPLE 57, (E)-2-(8-trifluoromethyl-3,4-dihydrobenzo[b]oxepin-5(2H)-ylidene)-N-(3-(N-methyl-N-(4-tetrahydropyranyl)amino)-3,4-dihydro-2(1H)-quinolinon-7-yl)acetamide], the A2 value result is recorded as “B (A2 value of 100 nM or more)”.

For `CC1(C)Oc2ccc(NC(=O)/C=C3\CCCOc4cc(C(F)(F)F)ccc43)cc2NC1=O` [Example 1, (E)-2-(8-trifluoromethyl-3,4-dihydrobenzo[b]oxepin-5(2H)-ylidene)-N-(2,2-dimethyl-4H-benzo[1,4]oxazin-3-on-6-yl)acetamide], the A2 value result is reported as “A (A2 value of less than 100 nM)”.

Regarding `CC1Oc2ccc(NC(=O)/C=C3\CCCOc4cc(C(F)(F)F)ccc43)cc2NC1=O` (stereo not drawn) [Example 2, (E)-2-(8-trifluoromethyl-3,4-dihydrobenzo[b]oxepin-5(2H)-ylidene)-N-(2-methyl-4H-benzo[1,4]oxazin-3-on-6-yl)acetamide], the A2 value result is “A (A2 value of less than 100 nM)”.
